Data on 34 compounds can be found in BindingDB's records for doi:10.1021/jm960799i (Dupont Pharmaceuticals, 1997).

Values joined by “and” are separate entries in the source; they are usually repeats but may differ in a detail not shown here. Equal values may be shown once. Where a name gives a salt, the structure may show the parent alone.

The target of the assay is Integrin alpha-IIb/beta-3 (Homo sapiens, UniProt P08514+P05106). In words: In vitro inhibition of ADP-induced platelet aggregation in human platelet rich plasma (hPRP).
Chain of Integrin alpha-IIb/beta-3 (P05106 27-788 limits assumed): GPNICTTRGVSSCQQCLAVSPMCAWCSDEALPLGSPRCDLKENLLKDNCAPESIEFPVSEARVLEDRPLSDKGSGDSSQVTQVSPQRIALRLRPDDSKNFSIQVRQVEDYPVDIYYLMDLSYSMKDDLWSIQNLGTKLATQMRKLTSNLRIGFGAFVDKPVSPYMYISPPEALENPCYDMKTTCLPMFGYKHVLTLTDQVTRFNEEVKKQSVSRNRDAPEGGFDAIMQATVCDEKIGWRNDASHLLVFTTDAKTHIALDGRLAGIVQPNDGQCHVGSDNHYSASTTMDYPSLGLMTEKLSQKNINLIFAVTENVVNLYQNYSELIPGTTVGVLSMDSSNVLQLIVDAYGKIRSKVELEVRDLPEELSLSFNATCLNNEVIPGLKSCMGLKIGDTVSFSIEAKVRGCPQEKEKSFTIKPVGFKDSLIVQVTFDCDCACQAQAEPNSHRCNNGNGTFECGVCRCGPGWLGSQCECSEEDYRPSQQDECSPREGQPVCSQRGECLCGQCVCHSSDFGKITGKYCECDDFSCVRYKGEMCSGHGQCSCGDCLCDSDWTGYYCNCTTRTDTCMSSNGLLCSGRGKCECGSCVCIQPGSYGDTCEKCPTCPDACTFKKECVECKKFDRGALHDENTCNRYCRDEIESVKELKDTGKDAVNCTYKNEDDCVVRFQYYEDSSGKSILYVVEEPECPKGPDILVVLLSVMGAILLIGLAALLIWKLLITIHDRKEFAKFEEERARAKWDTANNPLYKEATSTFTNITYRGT
Chain of Integrin alpha-IIb/beta-3 (P08514 32-887 limits assumed): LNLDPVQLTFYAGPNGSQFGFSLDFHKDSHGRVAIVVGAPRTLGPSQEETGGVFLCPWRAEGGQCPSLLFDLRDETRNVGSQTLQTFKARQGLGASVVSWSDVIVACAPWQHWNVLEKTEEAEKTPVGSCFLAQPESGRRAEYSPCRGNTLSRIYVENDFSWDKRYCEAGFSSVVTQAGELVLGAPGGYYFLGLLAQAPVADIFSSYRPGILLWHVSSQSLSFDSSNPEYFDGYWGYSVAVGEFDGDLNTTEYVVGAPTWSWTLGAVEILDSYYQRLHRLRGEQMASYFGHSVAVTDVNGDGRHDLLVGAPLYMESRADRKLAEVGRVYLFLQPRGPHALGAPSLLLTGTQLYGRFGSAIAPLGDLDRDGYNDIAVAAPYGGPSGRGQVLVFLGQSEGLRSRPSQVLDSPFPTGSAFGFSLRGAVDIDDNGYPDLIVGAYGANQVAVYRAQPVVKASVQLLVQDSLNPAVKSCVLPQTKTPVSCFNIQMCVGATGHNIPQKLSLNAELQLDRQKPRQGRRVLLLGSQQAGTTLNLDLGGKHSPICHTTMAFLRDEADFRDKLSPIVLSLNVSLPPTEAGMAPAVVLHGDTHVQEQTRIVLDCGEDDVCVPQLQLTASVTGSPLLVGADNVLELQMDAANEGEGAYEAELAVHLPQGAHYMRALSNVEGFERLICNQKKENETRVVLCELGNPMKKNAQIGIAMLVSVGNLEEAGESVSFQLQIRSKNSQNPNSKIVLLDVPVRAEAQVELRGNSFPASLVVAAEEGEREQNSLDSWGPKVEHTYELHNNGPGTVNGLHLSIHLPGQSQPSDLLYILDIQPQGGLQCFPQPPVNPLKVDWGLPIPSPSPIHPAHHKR
Chain of Integrin alpha-IIb/beta-3 (P08514 891-1039 limits assumed): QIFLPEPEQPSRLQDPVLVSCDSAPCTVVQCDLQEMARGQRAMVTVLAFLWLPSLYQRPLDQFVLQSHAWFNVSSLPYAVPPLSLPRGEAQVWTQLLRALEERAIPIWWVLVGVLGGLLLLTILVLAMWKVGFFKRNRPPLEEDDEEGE
What is called IC50 is the concentration that gives 50% inhibition. A low value points to greater potency. Regarding `N=C(N)c1ccc(C2=NO[C@@H](CC(=O)NCCC(=O)O)C2)cc1`, the IC50 came to 60 nM.
The compound `N=C(N)c1ccc(C2=NOC(CC(=O)N[C@@H](CC(=O)O)C(=O)N3CCc4ccccc4C3)C2)cc1` (some centres undefined) gave a concentration for half-maximal inhibition (IC50) of 170 nM. This IC50 is about 2.8-fold higher than that of the compound before.
Compound `COC(=O)CC(CN(C)C)NC(=O)CC1CC(c2ccc(C(=N)N)cc2)=NO1` (centres undefined) [3-{2-[3-(4-Carbamimidoyl-phenyl)-4,5-dihydro-isoxazol-5-yl]-acetylamino}-4-dimethylamino-butyric acid methyl ester; TFA] displayed a 50% inhibitory concentration (IC50) of 2700 nM. This IC50 lies about 16-fold higher than the previous one.
`N=C(N)c1ccc(C2=NOC(CC(=O)NC(CC(=O)O)CC(=O)O)C2)cc1` (centres undefined) [3-{2-[3-(4-Carbamimidoyl-phenyl)-4,5-dihydro-isoxazol-5-yl]-acetylamino}-pentanedioic acid; TFA]: it took 210 nM to reach half-maximal inhibition (IC50). This IC50 is about 13-fold lower than that of the compound before.
In the case of `CCCCOC(=O)N[C@H](CNC(=O)C[C@H]1CC(c2ccc(C(=N)N)cc2)=NO1)C(=O)O` [(R)-2-Butoxycarbonylamino-3-{2-[(R)-3-(4-carbamimidoyl-phenyl)-4,5-dihydro-isoxazol-5-yl]-acetylamino}-propionic acid; hydrochloride], the half-maximal inhibitory concentration (IC50) was 27 nM.
As for `CCCCOC(=O)N[C@H](CNC(=O)C[C@@H]1CC(c2ccc(C(=N)N)cc2)=NO1)C(=O)O` [(R)-2-Butoxycarbonylamino-3-{2-[(S)-3-(4-carbamimidoyl-phenyl)-4,5-dihydro-isoxazol-5-yl]-acetylamino}-propionic acid; hydrochloride], half-maximal inhibition (IC50) was put at 100 nM.
The compound `COC(=O)C[C@H](CN(C)C)NC(=O)CC1CC(c2ccc(C(=N)N)cc2)=NO1` (stereo partly drawn) [(R)-3-{2-[3-(4-Carbamimidoyl-phenyl)-4,5-dihydro-isoxazol-5-yl]-acetylamino}-4-dimethylamino-butyric acid methyl ester; TFA] gave a concentration for half-maximal inhibition (IC50) of 7000 nM.
On to `N=C(N)c1ccc(C2=NOC(CC(=O)N[C@@H](CC(=O)O)Cc3ccccc3)C2)cc1` (stereo partly drawn) [(R)-3-{2-[3-(4-Carbamimidoyl-phenyl)-4,5-dihydro-isoxazol-5-yl]-acetylamino}-4-phenyl-butyric acid; TFA], for which 78 nM corresponded to half-maximal inhibition (IC50).
As for `COC(=O)C[C@H](CN1CCCC1)NC(=O)CC1CC(c2ccc(C(=N)N)cc2)=NO1` (stereo partly drawn) [(R)-3-{2-[3-(4-Carbamimidoyl-phenyl)-4,5-dihydro-isoxazol-5-yl]-acetylamino}-4-pyrrolidin-1-yl-butyric acid methyl ester; TFA], the figure is 3300 nM; as for `COC(=O)C[C@@H](CC(C)C)NC(=O)CC1CC(c2ccc(C(=N)N)cc2)=NO1` (stereo partly drawn) [(R)-3-{2-[3-(4-Carbamimidoyl-phenyl)-4,5-dihydro-isoxazol-5-yl]-acetylamino}-5-methyl-hexanoic acid methyl ester; TFA], 50 nM; as for `N=C(N)c1ccc(C2=NOC(CC(=O)N[C@H](CCc3ccccn3)CC(=O)O)C2)cc1` (stereo partly drawn) [(R)-3-{2-[3-(4-Carbamimidoyl-phenyl)-4,5-dihydro-isoxazol-5-yl]-acetylamino}-5-pyridin-2-yl-pentanoic acid; TFA], 180 nM.
Turning to `N=C(N)c1ccc(C2=NOC(CC(=O)N[C@H](CCc3cccnc3)CC(=O)O)C2)cc1` (stereo partly drawn) [(R)-3-{2-[3-(4-Carbamimidoyl-phenyl)-4,5-dihydro-isoxazol-5-yl]-acetylamino}-5-pyridin-3-yl-pentanoic acid; TFA], it took 360 nM to reach half-maximal inhibition (IC50).
The compound `N=C(N)c1ccc(C2=NOC(CC(=O)N[C@H](CCc3ccncc3)CC(=O)O)C2)cc1` (stereo partly drawn) [(R)-3-{2-[3-(4-Carbamimidoyl-phenyl)-4,5-dihydro-isoxazol-5-yl]-acetylamino}-5-pyridin-4-yl-pentanoic acid; TFA] showed an IC50 of 500 nM.
Turning to `CC[C@H](CC(=O)O)NC(=O)C[C@H]1CC(c2ccc(C(=N)N)cc2)=NO1` [(R)-3-{2-[(R)-3-(4-Carbamimidoyl-phenyl)-4,5-dihydro-isoxazol-5-yl]-acetylamino}-pentanoic acid; TFA], 54 nM corresponded to half-maximal inhibition (IC50).
Under `N=C(N)c1ccc(C2=NOC(CC(=O)NC[C@H](NC(=O)NCc3ccccc3)C(=O)O)C2)cc1` (stereo partly drawn) [(S)-2-(3-Benzyl-ureido)-3-{2-[3-(4-carbamimidoyl-phenyl)-4,5-dihydro-isoxazol-5-yl]-acetylamino}-propionic acid; TFA] stands 67 nM; under `N=C(N)c1ccc(C2=NOC(CC(=O)NC[C@H](NC(=O)OCc3ccc(Br)cc3)C(=O)O)C2)cc1` (stereo partly drawn) [(S)-2-(4-Bromo-benzyloxycarbonylamino)-3-{2-[3-(4-carbamimidoyl-phenyl)-4,5-dihydro-isoxazol-5-yl]-acetylamino}-propionic acid; TFA], 44 nM; under `CN(C[C@@H](C(=O)O)N(C)C(=O)OCc1ccccc1)C(=O)CC1CC(c2ccc(C(=N)N)cc2)=NO1` (stereo partly drawn) [(S)-2-(Benzyloxycarbonyl-methyl-amino)-3-({2-[3-(4-carbamimidoyl-phenyl)-4,5-dihydro-isoxazol-5-yl]-acetyl}-methyl-amino)-propionic acid; TFA], 570 nM.
As for `CCCCS(=O)(=O)N[C@@H](CNC(=O)CC1CC(c2ccc(C(=N)N)cc2)=NO1)C(=O)O` (stereo partly drawn) [(S)-2-(Butane-1-sulfonylamino)-3-{2-[3-(4-carbamimidoyl-phenyl)-4,5-dihydro-isoxazol-5-yl]-acetylamino}-propionic acid; TFA], the figure is 31 nM.
In turn, `N=C(N)c1ccc(C2=NOC(CC(=O)NC[C@H](N)C(=O)O)C2)cc1` (stereo partly drawn) [(S)-2-Amino-3-{2-[3-(4-carbamimidoyl-phenyl)-4,5-dihydro-isoxazol-5-yl]-acetylamino}-propionic acid; TFA] yielded an IC50 of 91 nM. Against the preceding compound, the IC50 is about 2.9-fold higher.
Under `COC(=O)[C@H](CN(C)C(=O)CC1CC(c2ccc(C(=N)N)cc2)=NO1)NC(=O)OCc1ccccc1` (stereo partly drawn) [(S)-2-Benzyloxycarbonylamino-3-({2-[3-(4-carbamimidoyl-phenyl)-4,5-dihydro-isoxazol-5-yl]-acetyl}-methyl-amino)-propionic acid methyl ester; TFA] stands 160 nM.
As to `O=C(CC1CC(CCC2CCNCC2)=NO1)NC[C@H](NC(=O)OCc1ccccc1)C(=O)O` (stereo partly drawn) [(S)-2-Benzyloxycarbonylamino-3-{2-[3-(2-piperidin-4-yl-ethyl)-4,5-dihydro-isoxazol-5-yl]-acetylamino}-propionic acid; TFA], half-maximal inhibition (IC50) required 210 nM.
As to `C=CCCOC(=O)N[C@@H](CNC(=O)CC1CC(c2ccc(C(=N)N)cc2)=NO1)C(=O)O` (stereo partly drawn) [(S)-2-But-3-enyloxycarbonylamino-3-{2-[3-(4-carbamimidoyl-phenyl)-4,5-dihydro-isoxazol-5-yl]-acetylamino}-propionic acid; TFA], the IC50 stood at 44 nM.
In the case of `CCCCOC(=O)N[C@@H](CN(C)C(=O)CC1CC(c2ccc(C(=N)N)cc2)=NO1)C(=O)O` (stereo partly drawn) [(S)-2-Butoxycarbonylamino-3-({2-[3-(4-carbamimidoyl-phenyl)-4,5-dihydro-isoxazol-5-yl]-acetyl}-methyl-amino)-propionic acid; TFA], the half-maximal inhibitory concentration (IC50) was 200 nM.
With `CCCCOC(=O)N[C@@H](CNC(=O)CC1CC(C2CCNCC2)=NO1)C(=O)O` (stereo partly drawn) [(S)-2-Butoxycarbonylamino-3-[2-(3-piperidin-4-yl-4,5-dihydro-isoxazol-5-yl)-acetylamino]-propionic acid; TFA], the midpoint of inhibition, the IC50, lay at 6300 nM.
The compound `CCCCOC(=O)N[C@@H](CNC(=O)CC1CC(CC2CCNCC2)=NO1)C(=O)O` (stereo partly drawn) [(S)-2-Butoxycarbonylamino-3-[2-(3-piperidin-4-ylmethyl-4,5-dihydro-isoxazol-5-yl)-acetylamino]-propionic acid; TFA] returned a half-maximal inhibitory concentration (IC50) of 10000 nM.
With `CCCCOC(=O)N[C@@H](CNC(=O)CC1CC(CCC2CCNCC2)=NO1)C(=O)O` (stereo partly drawn) [(S)-2-Butoxycarbonylamino-3-{2-[3-(2-piperidin-4-yl-ethyl)-4,5-dihydro-isoxazol-5-yl]-acetylamino}-propionic acid; TFA], the IC50 turned out to be 180 nM.
`CCCCOC(=O)N[C@@H](CNC(=O)CC1CC(CCCC2CCNCC2)=NO1)C(=O)O` (stereo partly drawn) [(S)-2-Butoxycarbonylamino-3-{2-[3-(3-piperidin-4-yl-propyl)-4,5-dihydro-isoxazol-5-yl]-acetylamino}-propionic acid; TFA] showed an IC50 of 180 nM.
Under `CCCCOC(=O)N[C@@H](CNC(=O)CC1CC(c2ccc(C(=N)N)cc2F)=NO1)C(=O)O` (stereo partly drawn) [(S)-2-Butoxycarbonylamino-3-{2-[3-(4-carbamimidoyl-2-fluoro-phenyl)-4,5-dihydro-isoxazol-5-yl]-acetylamino}-propionic acid] stands 73 nM; under `CCCCOC(=O)N[C@@H](CNC(=O)CC1CC(c2ccc(C(=N)N)cc2)=NO1)C(=O)OC` (stereo partly drawn) [(S)-2-Butoxycarbonylamino-3-{2-[3-(4-carbamimidoyl-phenyl)-4,5-dihydro-isoxazol-5-yl]-acetylamino}-propionic acid methyl ester; hydrochloride], 30 nM.
As for `CCCCOC(=O)N[C@@H](CNC(=O)CC1CC(c2ccc(C(=N)N)cc2)=NO1)C(=O)O` (stereo partly drawn) [(S)-2-Butoxycarbonylamino-3-{2-[3-(4-carbamimidoyl-phenyl)-4,5-dihydro-isoxazol-5-yl]-acetylamino}-propionic acid; TFA], the figure is 75 nM and 42 nM; as for `CCCCOC(=O)N[C@@H](CNC(=O)CC1CC(c2ccc(N=C(N)N)cc2)=NO1)C(=O)O` (stereo partly drawn) [(S)-2-Butoxycarbonylamino-3-{2-[3-(4-guanidino-phenyl)-4,5-dihydro-isoxazol-5-yl]-acetylamino}-propionic acid], 88 nM.
Consider `N=C(N)c1ccc(C2=NOC(CC(=O)NC[C@H](NC(=O)c3ccc(-c4ccccc4)cc3)C(=O)O)C2)cc1` (stereo partly drawn) [(S)-2-[(Biphenyl-4-carbonyl)-amino]-3-{2-[3-(4-carbamimidoyl-phenyl)-4,5-dihydro-isoxazol-5-yl]-acetylamino}-propionic acid; TFA], for which the IC50 is 67 nM.
For `N=C(N)c1ccc(C2=NOC(CC(=O)NC[C@H](NC(=O)OCc3ccccc3Cl)C(=O)O)C2)cc1` (stereo partly drawn) [(S)-3-{2-[3-(4-Carbamimidoyl-phenyl)-4,5-dihydro-isoxazol-5-yl]-acetylamino}-2-(2-chloro-benzyloxycarbonylamino)-propionic acid; TFA], the IC50 is 32 nM.
Compound `N=C(N)c1ccc(C2=NOC(CC(=O)NC[C@H](NC(=O)OCCC3CCCC3)C(=O)O)C2)cc1` (stereo partly drawn) [(S)-3-{2-[3-(4-Carbamimidoyl-phenyl)-4,5-dihydro-isoxazol-5-yl]-acetylamino}-2-(2-cyclopentyl-ethoxycarbonylamino)-propionic acid; TFA] registered a half-maximal inhibitory concentration (IC50) of 32 nM.
